Measurements reported in patent US9249151B2, “Bis-amido pyridines” (Boehringer Ingelheim International GmbH, priority 2013, dated 2016).

The molecules below were run against BIR3 domain of human cIAP1 (amino acids 256 to 363; cIAP1 BIR3) (Homo sapiens (Human), UniProt Q13490) (assay: cIAP1 BIR3 binding assay (DELFIA)). Settings: not given.
Description: XIAP BIR3 and cIAP1 BIR3 Binding Assays (DELFIA)
Peptide […]-Lys(Biotin), representing the N-terminus of mature human SMAC (SMAC peptide), was used as interaction partner in the protein-peptide interaction assay.
BIR3 domains (10 nM) were incubated with SMAC peptide (10 nM) in assay buffer (50 mM Tris, 120 mM NaCl, 0.1% BSA, 1 mM DTT, 0.05% TritonX100) for one hour at room temperature in the presence of inhibitory compounds. The assay mixture was transferred to a streptavidin coated plate and incubated for one hour at room temperature to allow binding of the biotinylated peptide and associated BIR3 domains to the plate. After several washing steps Eu labeled anti-GST antibody (e.g. Perkin Elmer DELFIA Eu-N1-antiGST AD0250) was added to detect BIR3 domain-SMAC peptide interactions m according to Perkin Elmer's instructions. […] Time resolved Europium fluoresecence was measured in a Wallac Victor using Standard assay settings.
DELFIA assay results were plotted against compound concentrations and Software GraphPad Prizm was used to calculate half maximal inhibitory concentrations (IC50 values).

Chain of BIR3 domain of human cIAP1 (amino acids 256 to 363; cIAP1 BIR3) (Q13490 256-363): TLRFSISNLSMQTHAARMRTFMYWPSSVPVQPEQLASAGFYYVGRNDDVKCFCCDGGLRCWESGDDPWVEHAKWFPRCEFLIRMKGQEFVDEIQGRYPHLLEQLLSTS

SMILES	IC50
CNC(C)C(=O)Nc1cc(-c2ncnc3cccc(C)c23)cc(NC(=O)c2ccc(Cl)cn2)n1 (stereo not drawn) [Example 9, 5-chloro-N-{6-[2-(methylamino)propanamido]-4-(5-methylquinazolin-4-yl)pyridin-2-yl}pyridine-2-carboxamide]	1 nM
CNC(C)C(=O)Nc1cc(-c2c(OC)ccc3cc(C#N)ccc23)cc(NC(=O)c2ccc(Cl)cn2)n1 (stereo not drawn) [Example 25, 5-chloro-N-[4-(6-cyano-2-methoxynaphihalen-1-yl)-6-[2-(methylamino)propanamido]-pyridin-2-yl]pyridine-2-carboxamide]	47 nM

Same assay, conditions: BIR3 domain 10 nM, SMAC peptide 10 nM; values represent the (S)-isomers; * = racemic compound; read-out: cIAP1 BIR-3 IC50

IC50	SMILES
3 nM	CNC(C)C(=O)Nc1cc(-c2nccc3c(=O)n(C)n(C)c23)cc(NC(=O)c2ccc(Cl)cn2)n1 (racemic) [Example 58, 5-chloro-N-(4-{1,2-dimethyl-3-oxo-1H,2H,3H-pyrazolo-[3,4-c]pyridin-7-yl}-6-[2-(methylamino)propanamido]-pyridin-2-yl)pyridine-2-carboxamide]
1 nM	CNC(C)C(=O)Nc1cc(-c2ncnc3c(C)nn(C)c23)cc(NC(=O)c2ccc(Cl)cn2)n1 (stereo not drawn) [Example 1, 5-chloro-N-(4-{1,3-dimethyl-1H-pyrazolo[4,3-d]pyrimidin-7-yl}-6-[2-(methylamino)propanamido]pyridin-2-yl)pyridine-2-carboxamide]
2 nM	CNC(C)C(=O)Nc1cc(-c2ncnc3c(C)nn(C)c23)cc(NC(=O)c2cc3c(cn2)COC3)n1 (stereo not drawn) [Example 2, N-(4-{1,3-dimethyl-1H-pyrazolo[4,3-d]pyrimidin-7-yl}-6-[2-(methylamino)propanamido]-pyridin-2-yl)-1H,3H-furo[3,4-c]pyridine-6-carboxamide]
3 nM	CNC(C)C(=O)Nc1cc(-c2c(C)noc2C)cc(NC(=O)c2ccc(Cl)cn2)n1 (stereo not drawn) [Example 3, 5-chloro-N-[4-(dimethyl-1,2-oxazol-4-yl)-6-[2-(methylamino)propanamido]-pyridin-2-yl]pyridine-2-carboxamide]
28 nM	CNC(C)C(=O)Nc1cc(-c2ccncc2C#N)cc(NC(=O)c2ccc(Cl)cn2)n1 (stereo not drawn) [Example 4, 5-chloro-N-[4-(3-cyanopyridin-4-yl)-6-[2-(methylamino)propanamido]-pyridin-2-yl]pyridine-2-carboxamide]
5 nM	CNC(C)C(=O)Nc1cc(-c2c(C)ncnc2C)cc(NC(=O)c2ccc(Cl)cn2)n1 (stereo not drawn) [Example 5, 5-chloro-N-[4-(4,6-dimethylpyrimidin-5-yl)-6-[2-(methylamino)propanamido]-pyridin-2-yl]pyridine-2-carboxamide]
10 nM	CNC(C)C(=O)Nc1cc(-c2c(C)nc3ccccn23)cc(NC(=O)c2ccc(Cl)cn2)n1 (stereo not drawn) [Example 6, 5-chloro-N-{6-[2-(methylamino)propanamido]-4-{2-methylimidazo[1,2-a]pyridin-3-yl}pyridin-2-yl}pyridine-2-carboxamide]
3 nM	CNC(C)C(=O)Nc1cc(-c2cccc3cnn(C)c23)cc(NC(=O)c2ccc(Cl)cn2)n1 (stereo not drawn) [Example 7, 5-chloro-N-[4-(1-methyl-1H-indazol-7-yl)-6-[2-(methylamino)propanamido]-pyridin-2-yl]pyridine-2-carboxamide]
1 nM	CNC(C)C(=O)Nc1cc(-c2nccc3cccc(C)c23)cc(NC(=O)c2ccc(Cl)cn2)n1 (stereo not drawn) [Example 8, 5-chloro-N-{6-[2-(methylamino)propanamido]-4-(8-methylisoquinolin-1-yl)pyridin-2-yl}pyridine-2-carboxamide]
7 nM	CNC(C)C(=O)Nc1cc(-c2c(C)nc3cccc(C)n23)cc(NC(=O)c2ccc(Cl)cn2)n1 (stereo not drawn) [Example 10, 5-chloro-N-(4-{2,5-dimethylimidazo[1,2-a]pyridin-3-yl]-6-[2-(methylamino)propanamido]-pyridin-2-yl)pyridine-2-carboxamide]
1 nM	CNC(C)C(=O)Nc1cc(-c2cccc3nc(C)c(C)n23)cc(NC(=O)c2ccc(Cl)cn2)n1 (stereo not drawn) [Example 11]
3 nM	CNC(C)C(=O)Nc1cc(-c2cccc3nn(C)c(C)c23)cc(NC(=O)c2ccc(Cl)cn2)n1 (stereo not drawn) [Example 12, 5-chloro-N-[4-(2,3-dimethyl-2H-indazol-4-yl)-6-[2-(methylamino)propanamido]-pyridin-2-yl]pyridine-2-carboxamide]
2 nM	CNC(C)C(=O)Nc1cc(-c2cccc3c2c(C)nn3C)cc(NC(=O)c2ccc(Cl)cn2)n1 (stereo not drawn) [Example 13, 5-chloro-N-[4-(1,3-dimethyl-1H-indazol-4-yl)-6-[2-(methylamino)propanamido]-pyridin-2-yl]pyridine-2-carboxamide]
1 nM	CNC(C)C(=O)Nc1cc(-c2ncnc3cccc(F)c23)cc(NC(=O)c2ccc(Cl)cn2)n1 (stereo not drawn) [Example 14, 5-chloro-N-[4-(5-fluoroquinazolin-4-yl)-6-[2-(methylamino)propanamido]-pyridin-2-yl]pyridine-2-carboxamide]
1 nM	CNC(C)C(=O)Nc1cc(-c2ncnc3oc(C)c(C)c23)cc(NC(=O)c2ccc(Cl)cn2)n1 (stereo not drawn) [Example 15, 5-chloro-N-(4-{5,6-dimethylfuro[2,3-d]pyrimidin-4-yl}-6-[2-(methylamino)propanamido]-pyridin-2-yl)pyridine-2-carboxamide]
1 nM	CNC(C)C(=O)Nc1cc(-c2ncnc3nc(C)n(C)c23)cc(NC(=O)c2ccc(Cl)cn2)n1 (stereo not drawn) [Example 16, 5-chloro-N-[4-(7,8-dimethyl-7H-purin-6-yl)-6-[2-(methylamino)propanamido]-pyridin-2-yl]pyridine-2-carboxamide]
1 nM	CNC(C)C(=O)Nc1cc(-c2cnc3cccc(Cl)n23)cc(NC(=O)c2ccc(Cl)cn2)n1 (stereo not drawn) [Example 18, 5-chloro-N-(4-{5-chloroimidazo[1,2-a]pyridin-3-yl}-6-[2-(methylamino)propanamido]-pyridin-2-yl)pyridine-2-carboxamide]
225 nM	CNC(C)C(=O)Nc1cc(-c2c(OC)ccc3ccccc23)cc(NC(=O)c2ccc(Cl)cn2)n1 (stereo not drawn) [Example 19, 5-chloro-N-[4-(2-methoxynaphthalen-1-yl)-6-[2-(methylamino)propanamido]-pyridin-2-yl]pyridine-2-carboxamide]
50 nM	CNC(C)C(=O)Nc1cc(-c2c(OC)ccc3nccnc23)cc(NC(=O)c2ccc(Cl)cn2)n1 (stereo not drawn) [Example 20, 5-chloro-N-[4-(6-methoxyquinoxalin-5-yl)-6-[2-(methylamino)propanamido]-pyridin-2-yl]pyridine-2-carboxamide]
1 nM	CNC(C)C(=O)Nc1cc(-c2nc(C)nc3c(C)nn(C)c23)cc(NC(=O)c2ccc(Cl)cn2)n1 (stereo not drawn) [Example 21, 5-chloro-N-{6-[2-(methylamino)propanamido]-4-{trimethyl-1H-pyrazolo[4,3-d]pyrimidin-7-yl}pyridin-2-yl}pyridine-2-carboxamide]
1 nM	CNC(C)C(=O)Nc1cc(-c2ncnc3cccc(Cl)c23)cc(NC(=O)c2ccc(Cl)cn2)n1 (stereo not drawn) [Example 22, 5-chloro-N-[4-(5-chloroquinazolin-4-yl)-6-[2-(methylamino)propanamido]-pyridin-2-yl]pyridine-2-carboxamide]
8 nM	CNC(C)C(=O)Nc1cc(-c2ccnc3cc(F)cc(F)c23)cc(NC(=O)c2ccc(Cl)cn2)n1 (stereo not drawn) [Example 23, 5-chloro-N-[4-(5,7-difluoroquinolin-4-yl)-6-[2-(methylamino)propanamido]-pyridin-2-yl]pyridine-2-carboxamide]
1 nM	CNC(C)C(=O)Nc1cc(-c2c(OC)ccc3nccc(C)c23)cc(NC(=O)c2ccc(Cl)cn2)n1 (stereo not drawn) [Example 24, 5-chloro-N-[4-(6-methoxy-4-methylquinolin-5-yl)-6-[2-(methylamino)propanamido]-pyridin-2-yl]pyridine-2-carboxamide]
1 nM	CNC(C)C(=O)Nc1cc(-c2c(C)nc(C)c3c(=O)n(C)n(C)c23)cc(NC(=O)c2ccc(Cl)cn2)n1 (stereo not drawn) [Example 26, 5-chloro-N-{6-[2-(methylamino)propanamido]-4-{1,2,4,6-tetramethyl-3-oxo-1H,2H,3H-pyrazolo[4,3-c]pyridin-7-yl}pyridin-2-yl}pyridine-2-carboxamide]
18 nM	CNC(C)C(=O)Nc1cc(-c2c(Cl)c(C)nc3cc(Cl)cc(Cl)c23)cc(NC(=O)c2ccc(Cl)cn2)n1 (stereo not drawn) [Example 27, 5-chloro-N-{6-[2-(methylamino)propanamido]-4-(3,5,7-trichloro-2-methylquinolin-4-yl)pyridin-2-yl}pyridine-2-carboxamide]
31 nM	CNC(C)C(=O)Nc1cc(-c2c(C)ccc3ncccc23)cc(NC(=O)c2cc3c(cn2)COC3)n1 (stereo not drawn) [Example 28, N-{6-[2-(methylamino)propanamido]-4-(6-methylquinolin-5-yl)pyridin-2-yl}-1H,3H-furo[3,4-c]pyridine-6-carboxamide]
28 nM	CNC(C)C(=O)Nc1cc(-c2c(C)ccc3ncccc23)cc(NC(=O)c2ccc(C)cn2)n1 (stereo not drawn) [Example 29, 5-methyl-N-{6-[2-(methylamino)propanamido]-4-(6-methylquinolin-5-yl)pyridin-2-yl}pyridine-2-carboxamide]

SMILES	IC50
CNC(C)C(=O)Nc1cc(-c2nn(C)c3ncnc(N)c23)cc(NC(=O)c2ccccn2)n1 (stereo not drawn) [Example 17, N-(4-{4-amino-1-methyl-1H-pyrazolo[3,4-d]pyrimidin-3-yl}-6-[2-(methylamino)propanamido]-pyridin-2-yl)pyridine-2-carboxamide]	95 nM
